Measured values: publication PMC7269481, “ZN148 Is a Modular Synthetic Metallo-β-Lactamase Inhibitor That Reverses Carbapenem Resistance in Gram-Negative Pathogens In Vivo” (Antimicrobial Agents and Chemotherapy, 2020)
Values joined by “and” are separate entries in the source; they are usually repeats but may differ in a detail not shown here. Equal values may be shown once. Read-outs that look alike come from different tables or passages of the source.

Experiments:
[1] = tested on: NDM-1-producing A. baumannii strains (n=6); assay: Carbapenem MIC, NDM-1-producing A. baumannii; format: cell-based; conditions: carbapenem alone or in combination with 50µM ZN148; one value per strain (n=6)
Procedure: (§1) MICs of carbapenems alone and in combination with inhibitors were determined by broth microdilution according to the Clinical and Laboratory Standards Institute (CLSI) guidelines ([48]) using either premade plates (TREK Diagnostic Systems/Thermo Fisher Scientific, East Grinstead, United Kingdom) with meropenem or in-house-prepared plates with meropenem, imipenem, and doripenem. ZN148 and other inhibitors were tested at a fixed concentration of 50 μM. Cation-adjusted Mueller-Hinton medium (TREK Diagnostic Systems/Thermo Fisher Scientific; Becton Dickinson, Franklin Lakes, NJ) were used as growth medium. The plates were incubated for 20 h at 37°C. ZN148, ZN222, ZN223, ZN228, and TPA were initially tested in combination with meropenem using two indicator strains: NDM-1-producing K. pneumoniae ([49], [50]) and VIM-2-producing P. aeruginosa ([51]). The activity of ZN148 were subsequently tested against two extended strain collections: (i) in combination with meropenem against MBL-producing Enterobacterales (n = 62), MBL-producing P. aeruginosa (n = 9) and MBL- and class D carbapenemase-coproducing Enterobacterales (n = 5) from the strain collection at the Norwegian National Advisory Unit on Detection of Antimicrobial Resistance and (ii) in combination with meropenem, imipenem, and doripenem against globally collected MBL-producing E. coli (n = 87), K. pneumoniae (n = 85), P. aeruginosa (n = 52), and A. baumannii (n = 6), MBL- and class A/D carbapenemase-coproducing E. coli (n = 11), K. pneumoniae (n = 15) and A. baumannii (n = 7) at IHMA Europe, Sàrl, Switzerland. E. coli ATCC 25922 and P. aeruginosa ATCC 27853 were used as quality control strains. The MBL inhibitors were also tested for intrinsic antibacterial activity against the strains.

[2] = tested on: E. coli co-producing MBLs and class A/D serine carbapenemases; assay: Carbapenem MIC, E. coli co-producing MBLs and class A/D serine carbapenemases; format: cell-based; conditions: carbapenem alone or with 50µM ZN148
Procedure: as §1

[3] = tested on: K. pneumoniae co-producing MBLs and class A/D serine carbapenemases; assay: Carbapenem MIC, K. pneumoniae co-producing MBLs and class D carbapenemases; format: cell-based; conditions: carbapenem alone or with 50µM ZN148, one value per strain
Procedure: as §1

[4] = tested on: A. baumannii co-producing MBLs and class A/D serine carbapenemases; assay: Carbapenem MIC, A. baumannii co-producing NDM-1 and class D carbapenemases; format: cell-based; conditions: carbapenem alone or with 50µM ZN148, one value per strain
Procedure: as §1

[5] = tested on: class A carbapenemase (KPC)-producing E. coli; assay: Carbapenem MIC, class A carbapenemase-producing E. coli; format: cell-based; conditions: carbapenem alone or with 50µM ZN148
Procedure: as §1

[6] = tested on: class A carbapenemase (KPC)-producing E. cloacae; assay: Carbapenem MIC, class A carbapenemase-producing E. cloacae; format: cell-based; conditions: carbapenem alone or with 50µM ZN148
Procedure: as §1

VIM-2 [7] = target: T1, VIM-2 (Escherichia coli, UniProt Q5U7L7); format: biochemical; conditions: after incubation with inhibitor and its removal (PD-10); 100 μM ZnSO4
T1 construct: made in house
Procedure: For reversibility of enzyme activity after incubation with ZN148, 3 ml of VIM-2 or NDM-1 was diluted with or without ZN148 in Chelex HEPES buffer (pH 7.5) and subsequently incubated for 1 h on ice. Then, 2.5 ml of each solution was loaded onto an equilibrated PD-10 column (GE Healthcare, Pittsburgh, PA), washed with 1 ml, and eluted with 1.5 ml of Chelex HEPES buffer (pH 7.5), respectively. Samples spiked and not spiked with inhibitor were diluted to a final enzyme concentration of 1 nM VIM-2 and 3 nM NDM-1. The initial reaction velocity was determined by adding nitrocefin (Merck) for VIM-2 or imipenem (Sigma-Aldrich) for NDM-1 at final concentrations of 50 and 100 μM, respectively. The initial enzyme reactions were recorded at 25°C. Inhibitor and enzyme alone were included as controls. All measurements were performed at least in duplicates. For enzyme restorability, pre- and postcolumn samples were supplemented with ZnSO4 (Sigma-Aldrich) to a final concentration of 100 μM and allowed to incubate for 5 min at 25°C. The initial enzyme velocity was then determined as described above.

VIM-2 [8] = target: T1, VIM-2; format: biochemical; conditions: VIM-2 preincubated with inhibitor
Procedure: VIM-2 (0.4 μM) was preincubated on ice for 30 min with or without ZN148. Complete protein unfolding was archived in 50 mM HEPES buffer (pH 7.5) supplemented with 1 μM ZnSO4 (Sigma-Aldrich) and 8 M urea (Merck, Darmstadt, Germany). Refolding was achieved by a stepwise buffer exchange using centrifugal cutoff filters (10 kDa; Merck) and decreasing concentrations of urea ([…] in 50 mM HEPES buffer [pH 7.5]). VIM-2 was diluted to a final concentration of 1 nM, and the enzyme activity was measured by adding nitrocefin (Merck) to a final concentration of 50 μM.

[9] = tested on: NDM-1-producing K. pneumoniae K66-45; assay: Meropenem MIC, broth microdilution, indicator strain K66-45; format: cell-based; conditions: meropenem alone or in combination with 50 μM of the labelled inhibitor
Procedure: as §1

[10] = tested on: VIM-2-producing P. aeruginosa K34-7; assay: Meropenem MIC, broth microdilution, indicator strain K34-7; format: cell-based; conditions: meropenem alone or in combination with 50 μM of the labelled inhibitor
Procedure: as §1

HepG2 cells = assay: In vitro toxicity, alamarBlue viability; format: cell-based, human; conditions: 24 h
Procedure: The human hepatoblastoma HepG2 cell line (HB-8065; ATCC, Manassas, VA) was cultured in DMEM-GlutaMAX (5.5 mM glucose; Thermo Fisher) supplemented with 10% fetal bovine serum (Sigma-Aldrich), streptomycin (100 μg/ml; Gibco/Thermo Fisher), and penicillin (100 U/ml; Gibco/Thermo Fisher) at 37°C in 5% CO2. For viability assays, cells were seeded in white 96-well Nunclon plates (Sigma-Aldrich) at a density of 20,000 cells/well and left overnight to adhere. ZN148 and TPA (Sigma-Aldrich, Darmstadt, Germany) dissolved in dimethyl sulfoxide (DMSO; (Sigma-Aldrich) were added to the white 96-well plates containing 20,000 HepG2 cells/well at concentrations ranging from 1 to 1 × 10^−3 mM (a DMSO concentration kept below 1%), followed by incubation for 24 h at 37°C in 5% CO2. After 24 h, alamarBlue cell viability reagent (Thermo Fisher, Carlsbad, CA) was added (10% final concentration), followed by incubation for 4 h at 37°C. The proportion of viable cells in each well was measured in a fluorescence plate reader (Clariostar; BMGlabtech, Germany) at excitation 550 nm/emission 603 nm ([56]). Data from eight replicates were fitted by nonlinear regression to determine IC50 values using Prism (GraphPad Software, Inc.).

[11] = read-out: affinity toward Zn^2+; cited from earlier work
VIM-2 [12] = target: T1, VIM-2; assay: Time-dependent inactivation kinetics of purified VIM-2 (nitrocefin); format: biochemical
Procedure: (§2) Protein expression and purification of NDM-1 and VIM-2 were performed as previously described ([36], [43], [57]). Stock solutions of purified NDM-1 and VIM-2 were prepared in 50 mM HEPES buffer (pH 7.5; Merck). Inhibition of NDM-1 and VIM-2 were determined for ZN148 and the analogues ZN222, ZN223, and ZN228 at different concentrations of inhibitor after preincubation times of 2, 8, 15, 25, and 32 min in 50 mM HEPES buffer (pH 7.5) supplemented with 1 μM ZnSO4 (Sigma-Aldrich) and bovine serum albumin (Sigma-Aldrich; final concentration, 2 μg/ml) at 25°C. Concentrations of 1 nM VIM-2 and 30 nM NDM-1 were used, and the reaction was initiated by the addition of 30 μM nitrocefin (Merck) for VIM-2 or 100 μM imipenem (Sigma-Aldrich) for NDM-1. The reaction was measured at 482 nm (VIM-2) or […] (NDM-1) in either standard 96-well plates (Thermo Fisher Scientific) for VIM-2 or UV-transparent 96-well plates (Corning, Kennebunk, ME) for NDM-1 at 25°C in a SpectraMax Plus plate reader (Molecular Devices). All of the enzyme and substrate concentrations indicated are the final concentrations in the assay. The enzyme activity as a percentage was calculated based on the initial velocity and compared to the control without inhibitor compound. All tests were performed at least in duplicates.
(§3) The observed rate constant (kobs) per inhibitor concentration was calculated from the slope of a semilog plot of the enzyme activity in percent versus preincubation time.
(§4) By fitting these values, the irreversible kinetic parameters maximum inactivation rate (kinact) and the inhibitor concentration that produces half-maximal rate of inactivation (KI) were obtained. Finally, the inhibitors were characterized by calculating kinact/KI. Where no saturation curve could be observed, KI and kinact were determined from the linear part of plot 1/kobs versus 1/[I].

NDM-1 = target: T2, NDM-1 (Klebsiella pneumoniae, UniProt C7C422); assay: Time-dependent inactivation kinetics of purified NDM-1 (imipenem); format: biochemical
T2 construct: made in house
T2 sequence (C7C422 29-270, looked up): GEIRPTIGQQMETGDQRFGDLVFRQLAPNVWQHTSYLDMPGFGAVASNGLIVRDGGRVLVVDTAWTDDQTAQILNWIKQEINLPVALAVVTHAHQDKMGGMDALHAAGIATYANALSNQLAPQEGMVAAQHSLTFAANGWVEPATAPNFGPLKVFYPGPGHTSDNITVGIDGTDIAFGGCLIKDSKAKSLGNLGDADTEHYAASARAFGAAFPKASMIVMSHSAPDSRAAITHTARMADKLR
Procedure: as §2, §3, §4

[13] = Escherichia coli, KPC-3 strain, read-out: MIC
[14] = KPC-2 strains, one value per strain
[15] = Enterobacter cloacae, KPC-3 strain, read-out: MIC

SMILES: C[C@@H](O)[C@H]1C(=O)N2C(C(=O)O)=C(S[C@@H]3CN[C@H](CNS(N)(=O)=O)C3)[C@H](C)[C@H]12 [DOR, doripenem]
- MIC [1]: > 64 µg/mL
- MIC ([2]; NDM-1 + GES-2 strain): 64 µg/mL
- MIC ([2]; NDM-5 + OXA-48 strain): > 64 µg/mL
- MIC ([2]; NDM-5 + OXA-181 strains, one value per strain): 64 µg/mL
- MIC ([2]; NDM-5 + OXA-232 strains, one value per strain): > 64 µg/mL
- MIC ([3]; NDM-1 + OXA-232 strains): > 64 µg/mL
- MIC ([3]; NDM-5 + OXA-181 strains): > 64 µg/mL
- MIC ([4]; NDM-1 + OXA-23-like strains): > 64 µg/mL
- MIC ([4]; NDM-1 + OXA-24-like, OXA-58-like strains): > 64 µg/mL
- MIC ([5]; Escherichia coli, KPC-2 strains, one value per strain, read-out: MIC): 4 µg/mL
- MIC [5, 13]: 4 µg/mL
- MIC [5, 14]: 2 µg/mL
- MIC [6, 15]: 2 µg/mL

SMILES: O=C(O)CN(CCN(CC(=O)O)CC(=O)O)CC(=O)O [EDTA]
- MBL activity restored by addition of exogenous zinc, compared to untreated control (VIM-2 [7]): complete or nearly complete (∼80%) restoration of activity
- enzyme activity after unfolding and stepwise refolding, of control activity (VIM-2 [8]): > 80%

SMILES: C[C@@H](O)[C@H]1C(=O)N2C(C(=O)O)=C(SCCN=CN)C[C@H]12 [IPM, imipenem]
- MIC [1]: > 64 µg/mL
- MIC ([2]; NDM-1 + GES-2 strain): 16 µg/mL
- MIC ([2]; NDM-5 + OXA-48 strain): 32 µg/mL
- MIC ([3]; NDM-1 + OXA-232 strains): > 64 µg/mL
- MIC ([3]; NDM-5 + OXA-181 strains): > 64 µg/mL
- MIC ([4]; NDM-1 + OXA-23-like strains): > 64 µg/mL
- MIC [5, 13]: 8 µg/mL
- MIC ([6]; Enterobacter cloacae, KPC-2 strains, one value per strain, read-out: MIC): 8 µg/mL
- MIC [6, 15]: 16 µg/mL
- MIC [6, 14]: 16 µg/mL

SMILES: c1ccc(CN(Cc2ccccn2)Cc2ccccn2)nc1 [TPA, Tris-picolylamine]
- meropenem MIC [9]: 0.125 µg/mL
- meropenem MIC [10]: 1 µg/mL
- IC50 (HepG2 cells): 9.8 µM and 9.75 µM
- Kd [11]: 0.01 nM

SMILES: CN(C[C@H](O)[C@@H](O)[C@H](O)[C@H](O)CO)C(=O)c1ccc(CN(Cc2ccccc2)Cc2ccccc2)nc1 [ZN222]
- meropenem MIC [9]: 32 µg/mL
- meropenem MIC [10]: 32 µg/mL

SMILES: CN(C[C@H](O)[C@@H](O)[C@H](O)[C@H](O)CO)C(=O)c1ccc(CN(Cc2ccccc2)Cc2ccccn2)nc1 [ZN223]
- kinact (VIM-2 [12]): 0.000617 s⁻¹
- kinact/KI (VIM-2 [12]): 11.7 M⁻¹ s⁻¹
- kinact (NDM-1): 0.000633 s⁻¹
- kinact/KI (NDM-1): 1 M⁻¹ s⁻¹
- meropenem MIC [9]: 32 µg/mL
- meropenem MIC [10]: 32 µg/mL

SMILES: CN(C[C@H](O)[C@@H](O)[C@H](O)[C@H](O)CO)C(=O)c1ccc(CN(Cc2ccccn2)Cc2ccccn2)cc1 [ZN228]
- kinact (VIM-2 [12]): 0.000567 s⁻¹
- kinact/KI (VIM-2 [12]): 23.3 M⁻¹ s⁻¹
- kinact (NDM-1): 0.00127 s⁻¹
- kinact/KI (NDM-1): 1.83 M⁻¹ s⁻¹
- meropenem MIC [9]: 32 µg/mL
- meropenem MIC [10]: 32 µg/mL
